Columns and labels:
[1] = tested on: adipose tissue from hypophysectomized rats; experiment: Stimulation of glucose oxidation in adipose tissue from hypophysectomized rats; type: cell-based; details: for ability to stimulate glucose oxidation in adipose tissue: native peptides at concentrations up to 50 μg per ml
Excerpt: Biochem., 11, 559-570. The detailed extraction procedure actually employed is set forth in "Human Growth Hormone Peptide 1-43: Isolation from Pituitary Glands", Singh et al., J. Protein Chem., (in press) (1983).

[2] = Hypoglycemic activity of insulin when the peptide is given together with insulin; type: in vivo
[3] = tested on: VY-F-1 hybrid yellow mice; experiment: (U-14C)-D-glucose incorporation in tissues of mice after a glucose load; type: in vivo
Experimental: containing an appropriate amount of (U-^14 C)-D-glucose (Amersham Radiochemicals, Arlington Heights, IN) so that about 8×10^5 dpm of radiolabeled glucose was given per mouse. Sixty minutes after administration of the mixture, the mice were sacrificed and fragments of liver, diaphragm, and adipose tissue were quickly excised and weighed in a torsion balance. The pieces were placed in vials and digested for 2 hr at 55° C. in 1 molar KOH. After cooling to room temperature, the scintillation liquid was added to the vials. Radioactivity was measured the next day, and an average efficiency of 60% was measured using the internal standard method. Samples of blood were collected at the desired time by intraorbital puncture. Glucose content in the chilled plasma was determined in triplicates by the glucose oxidase method. Blood concentration of radioactive glucose was determined using 20 μl of plasma. Glucose incorporation (GI), expressed in arbitrary units, was calculated by the following equation for the various tissues: [formula] The specific activity of plasma glucose is defined as disintegrations per minute of radioactivity×1000 per 100 μl plasma, divided by milligrams of glucose per 100 ml. of plasma. Statistical significance was determined by 1-way analysis of variance and Duncan's multiple range t-test. Yellow (A^vy /A) and agouti (A/a) virgin (BALB/c×VY)F-1 hybrid female mice were produced by mating BALB/[…] females by […] males. The mice were housed 3 per 7"×5"×11" polypropylene cage with pine shavings as bedding and fed Wayne Lab Blox (Allied Mills, Inc.) 10% fat diet and tap water ad libitum. Ambient temperature was about 22±1° C., and a 12 hr light cycle was maintained. […] Whereas the effect upon the incorporation of glucose in the diaphragm was of lesser magnitude, it is possible that the values represent the maximal rate of glucose utilization by this muscle. […] Further testing was carried out on other mice to show the effect of insulin on the utilization of glucose in similar mice. Because the animals were obese and a maximal effect was desired, a large amount of hormone (50 milliunits per mouse) were used.

[4] = Plasma glucose in mice given a glucose load (glucose oxidase method); type: in vivo; details: for Plasma Glucose 0 min: sample at 0 min; for Plasma Glucose 60 min: sample at 60 min
Experimental: Injections were made intraperitoneally 30 min before administration of a glucose load of 2 mg/g of body weight containing an appropriate amount of (U-^14 C)-D-glucose (Amersham Radiochemicals, Arlington Heights, IN) so that about 8×10^5 dpm of radiolabeled glucose was given per mouse. Sixty minutes after administration of the mixture, the mice were sacrificed and fragments of liver, diaphragm, and adipose tissue were quickly excised and weighed in a torsion balance. The pieces were placed in vials and digested for 2 hr at 55° C. in 1 molar KOH. After cooling to room temperature, the scintillation liquid was added to the vials. Radioactivity was measured the next day, and an average efficiency of 60% was measured using the internal standard method. Samples of blood were collected at the desired time by intraorbital puncture. Glucose content in the chilled plasma was determined in triplicates by the glucose oxidase method. Blood concentration of radioactive glucose was determined using 20 μl of plasma. Glucose incorporation (GI), expressed in arbitrary units, was calculated by the following equation for the various tissues: [formula]
Further testing was carried out on other mice to show the effect of insulin on the utilization of glucose in similar mice. Because the animals were obese and a maximal effect was desired, a large amount of hormone (50 milliunits per mouse) were used.

[5] = mice; Frigeri et al., Endocrine Society Abstract #88; cited from earlier work
[6] = Table I, increase versus saline, 50 μg, 30 min before glucose
[7] = Table IA, increase versus saline, 50 μg, 30 min before glucose
[8] = Group B: insulin 50 mU per mouse 30 min before glucose
[9] = Group B: insulin 50 mU per mouse 30 min before glucose, listed as insulin
[10] = Group C: insulin 50 mU per mouse 5 min before glucose load
[11] = Group C: insulin 50 mU per mouse 5 min before glucose load, listed as insulin

CC[C@H](C)[C@H](NC(=O)[C@H](Cc1ccc(O)cc1)NC(=O)[C@H](C)NC(=O)[C@H](CCC(=O)O)NC(=O)[C@H](CCC(=O)O)NC(=O)[C@H](Cc1ccccc1)NC(=O)[C@H](CCC(=O)O)NC(=O)[C@H](CCC(N)=O)NC(=O)[C@H](Cc1ccc(O)cc1)NC(=O)[C@@H](NC(=O)[C@H](CC(=O)O)NC(=O)[C@H](Cc1ccccc1)NC(=O)[C@H](C)NC(=O)[C@H](CC(C)C)NC(=O)[C@H](CCC(N)=O)NC(=O)[C@H](Cc1c[nH]cn1)NC(=O)[C@H](CC(C)C)NC(=O)[C@H](CCCNC(=N)N)NC(=O)[C@H](Cc1c[nH]cn1)NC(=O)[C@H](C)NC(=O)[C@H](CCCNC(=N)N)NC(=O)[C@H](CC(C)C)NC(=O)[C@H](CCSC)NC(=O)[C@H](C)NC(=O)[C@H](CC(N)=O)NC(=O)[C@H](CC(=O)O)NC(=O)[C@H](Cc1ccccc1)NC(=O)[C@H](CC(C)C)NC(=O)[C@H](CCCNC(=N)N)NC(=O)[C@H](CO)NC(=O)[C@H](CC(C)C)NC(=O)[C@@H]1CCCN1C(=O)[C@@H](NC(=O)[C@@H](NC(=O)[C@@H]1CCCN1C(=O)[C@@H](N)Cc1ccccc1)[C@@H](C)O)[C@@H](C)CC)[C@@H](C)O)C(=O)N1CCC[C@H]1C(=O)N[C@@H](CCCCN)C(=O)N[C@@H](CCC(=O)O)C(=O)N[C@@H](CCC(N)=O)C(=O)N[C@@H](CCCCN)C(=O)N[C@@H](Cc1ccc(O)cc1)C(=O)N[C@@H](CO)C(=O)O [hGH(1-43), H--Phe--Pro--Thr--Ile--Pro--Leu--Ser--Arg--Leu--Phe--Asp--Asn--Ala--Met--Leu--Arg--Ala--His--Arg--Leu--His--Gln--Leu--Ala--Phe--Asp--Thr--Tyr--Gln--Glu--Phe--Glu--Glu--Ala--Tyr--Ile--Pro--Lys--Glu--Gln--Lys--Tyr--Ser--OH]
stimulation of in vitro glucose oxidation in adipose tissue ([1]; in vitro): does not stimulate | ability to stimulate glucose oxidation in adipose tissue [1]: inactive | hypoglycemic activity of insulin [2]: an increase of its hypoglycemic activity is observed | Glucose Incorporation Diaphragm ([3]; Table I, 50 μg intraperitoneally 30 min before glucose load, Mean ± SEM): 52.0 arbitrary units/g of tissue | Glucose Incorporation Liver ([3]; Table I, 50 μg intraperitoneally 30 min before glucose load, tissue 60 min after glucose, Mean ± SEM): 135.9 arbitrary units/g of tissue | Glucose Incorporation Adipose Tissue (%) [3, 6]: 63% | Glucose Incorporation Diaphragm (%) [3, 6]: 17% | Glucose Incorporation Liver ([3]; Table IA, 50 μg 30 min before glucose load, Mean ± SEM): 115.2 ± 16 arbitrary units/g of tissue | Glucose Incorporation Liver (%) [3, 7]: 35% | change of plasma glucose after administration of the peptide ([4]; after administration of hGH(1-43)): no significant decrease

GH: purified growth hormone, used as active comparator in the glucose oxidation assay
level at which glucose oxidation stimulating activity is shown ([1]; purified GH): 0.2 ng per ml

H-AHRLHQLAFDTYQEFEEAYIPKEQKYS-OH [hGH(17-43), H--Ala--His--Arg--Leu--His--Gln--Leu--Ala--Phe--Asp--Thr--Tyr--Gln--Glu--Phe--Glu--Glu--Ala--Tyr--Ile--Pro--Lys--Glu--Gln--Lys--Tyr--Ser--OH]
ability to stimulate glucose oxidation in adipose tissue [1]: inactive | Glucose Incorporation Liver (%) [3, 7]: ~35%

Insulin: hormone which controls storage and oxidation of sugar; given at 50 mU per mouse
Glucose Incorporation Adipose Tissue [3, 8]: 9.1 ± 0.82 arbitrary units/g of tissue | Glucose Incorporation Diaphragm [3, 8]: 54.4 ± 2.8 arbitrary units/g of tissue | Glucose Incorporation Liver [3, 8]: 36.6 ± 2.6 arbitrary units/g of tissue | Glucose Incorporation Adipose Tissue [3, 9]: rose | Glucose Incorporation Diaphragm [3, 9]: rose | Glucose Incorporation Liver [3, 9]: fell sharply below control levels | Glucose Incorporation Adipose Tissue [3, 10]: 9.0 ± 1.05 arbitrary units/g of tissue | Glucose Incorporation Diaphragm [3, 10]: 52.2 ± 2.4 arbitrary units/g of tissue | Glucose Incorporation Liver [3, 10]: 64.4 ± 9.5 arbitrary units/g of tissue | Glucose Incorporation Adipose Tissue [3, 11]: rose to values similar to those observed in the -30 minute treated group | Glucose Incorporation Diaphragm [3, 11]: rose to values similar to those observed in the -30 minute treated group | Glucose Incorporation Liver [3, 11]: remained unchanged | Plasma Glucose 0 min [4, 8]: 70 ± 8.3 mg/dL | Plasma Glucose 0 min [4, 9]: dropped sharply | Plasma Glucose 60 min [4, 8]: 182 ± 11.8 mg/dL | Plasma Glucose -30 min ([4]; Group B: insulin 50 mU per mouse 30 min before glucose, sample at -30 min): 122 ± 2.8 mg/dL | Plasma Glucose 0 min [4, 10]: 151. ± 9.5 mg/dl | Plasma Glucose 60 min [4, 10]: 270 ± 31 mg/dL | Plasma Glucose -5 min ([4]; Group C: insulin 50 mU per mouse 5 min before glucose load, sample at -5 min): 129 ± 6.5 mg/dL

fragment corresponding to amino acid residues 32-46: fragment corresponding to amino acid residues 32-46 of human GH (literature) (EEAYIPKEQKYSFLQ; UniProt P01241 58-72, looked up, fragment)
glucose tolerance [5]: could improve the glucose tolerance

— patent US4496521A, “Insulin-potentiating peptides” (The Whittier Institute for Diabetes and Endocrinology, priority 1983, dated 1985)
